Assay [1] relates to Staphylococcus aureus Mu3 cytoplasmic calcium. Kind of assay: Calcium influx monitored by Fluo-4-AM. The format is cell-based. The conditions noted are these: Fluo-4-AM fluorescence. The protocol: FIG. 12 is a line graph showing compound 8 can induce calcium influx into cytoplasm. The fluorescence of the Fluo-4-AM loaded in Staphylococcus aureus Mu3 was monitored for 10 minutes. The average of fluorescence in this period was assigned as F0. At t=10 minutes, different concentration of compound 8 was added to bacteria medium and then the fluorescence was further monitored for 40 minutes. Calcium ion transporter ionomycin was used as the positive control. The fluorescence Ft was normalized to initial fluorescence F0. Data represented the mean of biological triplicates.
Briefly, an overnight culture of MRSA Mu3 was sub-cultured 1:100 in fresh CAMH and regrown to exponential phase. The bacteria were washed twice and then re-suspended in PBS (OD595=0.5) containing 5 μM Fluo-4-AM. The bacteria were further incubated at 37° C. in dark for 2 hours before they were washed twice and resuspended into PBS containing 0.5 mM calcium chloride. 200 μL bacteria culture were then added into 96-well plate for each well. The plate was then pre-warmed and the fluorescence was monitored for 10 minutes for background measurement (excitation wavelength: 485 nm, emission wavelength: 535 nm). Fluorescence signal was recorded by Beckman Coulter DTX 880 Multimode Detector. Compounds were then added to 96-well plate and the fluorescence was further monitored for 5 minutes. […]

Assay [2] relates to virulence proteins of Staphylococcus aureus ATCC 29213. The assay can be described thus: Secretome analysis of virulence proteins. In kind it is cell-based. The conditions noted are these: 1.56 μM (0.5×MIC), 1.5 hours, supernatant. The protocol:
The red dots represented proteins which were annotated as “Virulence” and “Secrete/extracellular” as subcellular location by UniprotKB. The curve is derived at FDR=0.05 and s0=0.1.
S. aureus ATCC 29213 cells were sub-cultured from an overnight culture to OD595 0.1 and then cultured for 5 hours at 37° C., 250 rpm. Cells were concentrated by centrifugation (3,000×g, 4° C., 15 minutes), washed with 1×PBS and resuspended in CAMH to give OD595 1.5. […] Cells were then concentrated by centrifugation (3,000×g, 15 minutes and 6,000×g, 5 minutes). The supernatant was filtered (0.2 μm) and then concentrated by Amicon Ultra 10 KDa filter. Protein concentration was quantified by Bradford assay.
To quench the reaction, dithiothreitol (12.5 mM; 25° C., 200 rpm) was added for 30 minutes. Endoprotinase LysC was subsequently added (Enzyme: protein ratio 1:200; 25° C., 700 rpm) for 2 hours. The samples were diluted 1:5 by 50 mM ammonium bicarbonate buffer and further digested by trypsin (Enzyme: protein ratio 1:20; 37° C.) for 16 hours. The reaction was quenched by the addition of formic acid until pH reached 2-3. Samples were then submitted to the HKU proteomics and metabolomics core facility for analysis.
The peptides were desalted using C18 StageTips. Eluted peptides were analyzed with nanoelute UPLC was coupled to Bruker TimsTOF Pro mass spectrometer. […]

This note sets out measurements from US20240315992A1, “AMINOXY ACID-BASED ANTIBACTERIAL COMPOUNDS AND METHODS THEREOF” (The University of Hong Kong, priority 2023, published 2024).

Consider `CC(C)C[C@H](ONC(=O)[C@@H](COCc1ccccc1)ONC(=O)c1cc(C(F)(F)F)cc(C(F)(F)F)c1)C(=O)Nc1ccccc1` [Compound 8], for which, in assay [1], the “calcium influx into cytoplasm” value is given as “can induce calcium influx into cytoplasm in concentration dependent manner”. The “secretion of the virulence proteins” value in assay [2] is “can reduce the secretion of the virulence proteins”.
